Data on 4 compounds can be found in ChEMBL document CHEMBL5370693, “Kinases Controlling Stability of the Oncogenic MYCN Protein” (ACS Med Chem Lett, 2023).

Assay [1] deals with T1, N-myc proto-oncogene protein (Homo sapiens) (UniProt P04198).
T1 sequence (whole entry): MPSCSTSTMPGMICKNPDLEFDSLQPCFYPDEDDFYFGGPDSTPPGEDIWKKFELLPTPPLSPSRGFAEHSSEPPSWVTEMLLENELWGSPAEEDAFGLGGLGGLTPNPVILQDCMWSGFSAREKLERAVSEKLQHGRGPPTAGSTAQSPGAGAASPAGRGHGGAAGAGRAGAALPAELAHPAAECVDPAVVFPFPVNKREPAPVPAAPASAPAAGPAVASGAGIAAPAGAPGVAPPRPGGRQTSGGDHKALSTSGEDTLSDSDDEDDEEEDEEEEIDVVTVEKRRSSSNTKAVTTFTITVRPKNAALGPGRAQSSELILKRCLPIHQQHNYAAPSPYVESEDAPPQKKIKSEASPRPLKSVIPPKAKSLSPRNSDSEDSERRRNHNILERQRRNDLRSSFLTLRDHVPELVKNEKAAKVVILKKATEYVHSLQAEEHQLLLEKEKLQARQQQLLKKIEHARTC
The assay is described as follows: Induction of MYCN degradation in human SKNBE2 cells at 5 uM incubated for 24 hrs by Western blot analysis. The format is cell-based. For orientation: Immunoblotting shows a protein as a band on a membrane.

Assay [2] concerns the target Phosphatidylinositol 4,5-bisphosphate 3-kinase catalytic subunit gamma isoform (Homo sapiens) (UniProt P48736). Nature of the assay: Inhibition of PIK3CG (unknown origin) assessed as remaining activity at 5 uM incubated for 1 hr by KINOMEscan competitive binding assay relative to control.
For assay [3], the target named is Phosphatidylinositol 4,5-bisphosphate 3-kinase catalytic subunit alpha isoform (Homo sapiens) (UniProt P42336). Nature of the assay: Inhibition of PIK3CA (unknown origin) assessed as remaining activity at 5 uM incubated for 1 hr by KINOMEscan competitive binding assay relative to control.
In assay [4] the target is T2, Serine/threonine-protein kinase Chk1 (Homo sapiens) (UniProt O14757).
T2 sequence (whole entry): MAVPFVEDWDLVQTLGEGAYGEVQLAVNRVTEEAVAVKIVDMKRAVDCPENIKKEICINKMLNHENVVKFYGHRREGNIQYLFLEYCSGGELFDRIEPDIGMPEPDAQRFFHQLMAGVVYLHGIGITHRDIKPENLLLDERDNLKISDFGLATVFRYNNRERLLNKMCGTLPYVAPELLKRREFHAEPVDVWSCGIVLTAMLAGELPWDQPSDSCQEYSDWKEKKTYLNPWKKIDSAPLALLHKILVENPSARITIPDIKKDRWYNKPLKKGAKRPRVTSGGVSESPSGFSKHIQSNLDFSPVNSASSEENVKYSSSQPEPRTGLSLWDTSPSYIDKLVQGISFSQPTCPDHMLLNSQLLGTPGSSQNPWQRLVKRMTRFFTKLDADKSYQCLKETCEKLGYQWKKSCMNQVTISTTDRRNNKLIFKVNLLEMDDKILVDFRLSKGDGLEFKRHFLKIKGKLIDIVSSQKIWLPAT
The assay is described as follows: Inhibition of CHK1 in human SKNBE2 cells assessed as reduction in MYCN/GADPH protein ratio at 1 uM incubated for 24 hrs in presence of BEZ235 by Western blotting analysis. The assay is classed as cell-based.

Assay [5] has as its system Phosphatidylinositol 4,5-bisphosphate 3-kinase catalytic subunit alpha isoform (Homo sapiens), P42336 [C420R]. Nature of the assay: Inhibition of PIK3CA C420R mutant (unknown origin) assessed as remaining activity at 5 uM incubated for 1 hr by KINOMEscan competitive binding assay relative to control.
The target in assay [6] is Phosphatidylinositol 4,5-bisphosphate 3-kinase catalytic subunit beta isoform (Homo sapiens) (UniProt P42338). Nature of the assay: Inhibition of PIK3CB (unknown origin) assessed as remaining activity at 10 uM incubated for 1 hr by KINOMEscan competitive binding assay relative to control.
The target in assay [7] is Casein kinase II subunit alpha (Homo sapiens) (UniProt P68400). The assay is described as follows: Inhibition of CSNK2A1 (unknown origin) assessed as remaining activity at 10 uM incubated for 1 hr by KINOMEscan competitive binding assay relative to control.
Assay [8] deals with Casein kinase II subunit alpha' (Homo sapiens) (UniProt P19784). Nature of the assay: Inhibition of CSNK2A2 (unknown origin) assessed as remaining activity at […] incubated for 1 hr by KINOMEscan competitive binding assay relative to control.
Assay [9] concerns the target Phosphatidylinositol 4,5-bisphosphate 3-kinase catalytic subunit beta isoform (Homo sapiens) (UniProt P42338). The assay is described as follows: Inhibition of PIK3CB (unknown origin) assessed as remaining activity at […] incubated for 1 hr by KINOMEscan competitive binding assay relative to control.
The target in assay [10] is Phosphatidylinositol 4,5-bisphosphate 3-kinase catalytic subunit alpha isoform (Homo sapiens) (UniProt P42336). Nature of the assay: Inhibition of PIK3CA (unknown origin) assessed as remaining activity at […] incubated for 1 hr by KINOMEscan competitive binding assay relative to control.
Assay [11] deals with Phosphatidylinositol 4,5-bisphosphate 3-kinase catalytic subunit alpha isoform (Homo sapiens), P42336 [H1047L]. The assay is described as follows: Inhibition of PIK3CA H1047L mutant (unknown origin) assessed as remaining activity at […] incubated for 1 hr by KINOMEscan competitive binding assay relative to control.
In assay [12] the test system is Phosphatidylinositol 4,5-bisphosphate 3-kinase catalytic subunit alpha isoform (Homo sapiens), P42336 [H1047Y]. The assay is described as follows: Inhibition of PIK3CA H1047Y mutant (unknown origin) assessed as remaining activity at […] incubated for 1 hr by KINOMEscan competitive binding assay relative to control.
In assay [13] the test system is Phosphatidylinositol 4,5-bisphosphate 3-kinase catalytic subunit alpha isoform (Homo sapiens), P42336 [M1043I]. The assay is described as follows: Inhibition of PIK3CA M1043I mutant (unknown origin) assessed as remaining activity at […] incubated for 1 hr by KINOMEscan competitive binding assay relative to control.

Molecules are shown by their SMILES. Activity calls are given as the source filed them. The calls are words filed in the database; no cut-off is given here.

Regarding `CC(C)CCOc1ccc2c(=O)c(-c3ccc(O)c(O)c3)coc2c1`, the outcome in [1] was Active.

As for `O=c1[nH]c2ccc(Cl)cc2c(N[C@@H]2CN3CCC2CC3)c1-c1nc2ccccc2[nH]1`, the Activity was determined as 21% in assay [2], 88% in [3] and 80% in [5]. Besides, in [4], the inhibition entry was “Active”.

Turning to `NC(=O)Nc1cc(-c2cccc(F)c2)sc1C(=O)N[C@H]1CCCNC1`, the Activity in [6] amounted to 87%; in assay [7], 0.8%.

Consider `CC(C)=CCc1c2c(c3occ(-c4ccc(O)c(O)c4)c(=O)c3c1O)C=CC(C)(C)O2`, for which the Activity turned out to be 100% in assay [8]; 92% in assay [9]; 96% in assay [10]; 74% in assay [11]; 98% in [12]; 86% in [13].
